Results: PMC3276566, “Specialized Peptidoglycan Hydrolases Sculpt the Intra-bacterial Niche of Predatory Bdellovibrio and Increase Population Fitness” (PLoS Pathogens, 2012)

Tests used:
[1] = biological target: T1, Bd3459 (Bdellovibrio bacteriovorus, UniProt Q6MHT0, A37M); assay: fluorescent labelling, SDS-PAGE, Typhoon fluorescence scan; assay type: binding; conditions: covalent; labelled compound; 1.25 ug/ml Bocillin-FL, 75 ug/ml protein, 20 mM sodium phosphate pH 4.8, 10 min, 37 °C
T1 construct: E. coli BL21(DE3), modified pET41 (GST removed), Hi-Trap His column; about 46 kDa; likely monomer

[2] = biological target: T2, Bd3459 (Bdellovibrio bacteriovorus, UniProt Q6MHT0, A37M/S70A); assay: as above; assay type: binding; conditions: active-site serine mutant; labelled compound; 1.25 ug/ml Bocillin-FL, 75 ug/ml protein, 20 mM sodium phosphate pH 4.8, 10 min, 37 °C
T2 construct: E. coli BL21(DE3), modified pET41 (GST removed), Hi-Trap His column; about 46 kDa; likely monomer

[3] = biological target: T1, Bd3459; assay: HPLC muropeptide analysis of digested pentapeptide-rich peptidoglycan; also competition with Bocillin-FL labelling; assay type: biochemical; conditions: inhibitor pre-incubated at 0.4 mg/ml, 30 min, 37 °C; E. coli CS703-1 peptidoglycan, 20 mM sodium phosphate pH 4.8; labelling assay 2.5 ug/ml ampicillin

T1 sequence (Q6MHT0 entry or part of it A37M): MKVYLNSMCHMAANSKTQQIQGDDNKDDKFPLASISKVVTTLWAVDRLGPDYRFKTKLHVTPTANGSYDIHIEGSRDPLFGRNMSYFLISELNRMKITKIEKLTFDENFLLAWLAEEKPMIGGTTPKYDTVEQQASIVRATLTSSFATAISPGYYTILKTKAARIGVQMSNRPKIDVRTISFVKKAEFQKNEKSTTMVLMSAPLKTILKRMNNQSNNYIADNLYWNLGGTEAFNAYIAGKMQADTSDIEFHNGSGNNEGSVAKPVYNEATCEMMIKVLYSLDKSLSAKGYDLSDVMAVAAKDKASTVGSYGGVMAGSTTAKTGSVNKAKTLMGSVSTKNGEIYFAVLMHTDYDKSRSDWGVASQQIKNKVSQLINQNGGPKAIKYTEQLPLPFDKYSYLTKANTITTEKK
T2 sequence (Q6MHT0 entry or part of it A37M/S70A): as the sequence (Q6MHT0 entry or part of it A37M) above, with S34A counted along it

Row | SMILES | fluorescent labelling, SDS-PAGE, Typhoon fluorescence scan [1] | fluorescent labelling, SDS-PAGE, Typhoon fluorescence scan [2] | HPLC muropeptide analysis of digested pentapeptide-rich peptidoglycan; also comp [3]
1 | Cc1cc(C)n2c1C=C1C=CC(CCC(=O)Nc3ccc(OCC(=O)N[C@@H]4C(=O)N5[C@@H]4SC(C)(C)[C@@H]5C(=O)O)cc3)=[N+]1[B-]2(F)F [Bocillin-FL] | Bd3459 covalently bound the fluorescent beta-lactam Bocillin-FL | Bd3459 (S70A) bound significantly less Bocillin-FL | –
2 | CC1(C)S[C@@H]2[C@H](NC(=O)[C@H](N)c3ccccc3)C(=O)N2[C@H]1C(=O)O [ampicillin] | – | – | The addition of the beta-lactam ampicillin inhibited the WT enzyme
